Results taken from patent publication US10154988B2, “Methods and compositions for treating schizophrenia” (The Johns Hopkins University, priority 2012, dated 2018).

Assays:
[1] = system: entorhinal cortex (EC) of aMCI subjects; test: fMRI activity in entorhinal cortex during lure stimuli correctly identified as similar; format: in vivo, human; settings: 125 mg twice a day for two weeks vs placebo
Protocol: A within-subjects trial of 8 weeks duration, involving 17 amnestic MCI (aMCI) subjects and 17 age-matched controls with a low dose treatment of levetiracetam is conducted. During the course of the study, each aMCI subject receives both drug and placebo treatments separately in two periods of two weeks each, with the order of treatments among different aMCI subjects being counterbalanced (see FIG. 7). Age-matched control subjects that are treated with placebo serve as a further control. Cognitive testing and fMRI imaging data are obtained from the subjects after each two week period of drug/placebo treatment. As described above, the drug treatment period is the two weeks preceding Visit 1 or 2 (with the two week period preceding the other Visit being the placebo phase). […] Imaging data are obtained through high-resolution methods developed in the Stark laboratory. Data are collected on a Phillips 3 Tesla scanner (Eindhoven, The Netherlands) equipped with an 8-channel SENSE (Sensitivity Encoding) head coil, located at the F.M. Kirby Research Center for Functional Brain Imaging at the Kennedy Krieger Institute (Baltimore, Md.). […] Group data are analyzed using a two-way Analysis of Variance (ANOVA) with trial types and group as fixed factors, and subject as a random factor nested within group. […]

[2] = system: Age-Impaired (AI) Long-Evans rats; test: Morris Water Maze retention trial, levetiracetam in aged-impaired rats; format: in vivo, rat
Protocol: The MWM apparatus consists of a large, circular pool (diameter 1.83 m; height, 0.58 m) filled with water (27° C.) that is made opaque through the addition of non-toxic pigment or some other substance. In the typical “hidden platform” version of the test, rats are trained to find a camouflaged white escape platform (height, 34.5 cm) that is positioned in the center of one quadrant of the maze about 1.0 cm below the water surface. This platform can be retracted to the bottom of the tank or raised to its normal position from outside the maze during behavioral testing. The location of the platform remains constant from trial to trial. Because there are no local cues that mark the position of the platform, the rat's ability to locate it efficiently from any starting position at the perimeter of the pool depends on using information surrounding the maze. The maze is surrounded by black curtains to which white patterns are affixed to provide a configuration of spatial cues. A second platform (height 37.5 cm), with its surface painted black is elevated 2 cm above the water surface during cue training to control for factors unrelated to cognition. The behavior of a rat in the pool is recorded by a camera that is suspended 2.5 m above the center of the pool. The camera is connected to a video tracking system (HVS Image Advanced Tracker VP200) and a PC computer running HVS software developed by Richard Baker of HVS Image, Hampton, UK. The MWM protocol is optimized for sensitivity to the effects of aging on cognition and for measures of reliable individual differences within the aged population of out-bred Long-Evans rats (Gallagher et al. Behav. Neurosci. 107:618-626, (1993)). Rats receive three trials per day for 8 consecutive days, using a 60 sec inter-trial interval. On each training trial, the rat is released into the maze from one of four equally spaced starting positions around the perimeter of the pool. The starting position varies from trial to trial, thus preventing the use of a response strategy (e.g., always turning left from the start location to locate the escape platform). […] Every sixth trial consists of a probe trial to assess the development of spatial bias in the maze. During these trials, the rat swims with the platform being refracted to the bottom of the pool for 30 sec, at which time the platform is raised to its normal position for completion of the escape trial. At the completion of the protocol using the hidden platform, rats are assessed for cue learning using the visible platform. The location of this platform varies from trial to trial in a single session of 6 training trials. […]

[3] = 10 mg/kg/day i.p., retention trial

CC[C@@H](C(N)=O)N1CCCC1=O [levetiracetam, (2S)-2-(2-oxopyrrolidin-1-yl) butanamide]
EC activity during memory judgments (fMRI) [1]: normalizes activity
performance (time in target quadrant) versus vehicle ([2]; 5 mg/kg/day i.p., retention trial): does not significantly improve
memory as compared to vehicle-treated controls [2, 3]: significantly improved memory
time spent in the target annulus [2, 3]: effectiveness of the 10 mg/kg/day levetiracetam treatment is also seen
time spent in the target quadrant, percentage of total swimming time ([2]; 10 mg/kg/day i.p., retention trial 24 h after two training days, vehicle approximately 25%): approximately 35%
